Experimental findings from PMC7370100, “In Vitro Assessment of the Genotoxic Hazard of Novel Hydroxamic Acid- and Benzamide-Type Histone Deacetylase Inhibitors (HDACi)” (International Journal of Molecular Sciences, 2020) are described below.

Structures are written as SMILES.

Usually IC50 stands for the concentration at which inhibition is half-maximal.

In data set [1] the test system is VC8 hamster cells (BRCA1/2 defect). The data set is described as follows: Viability of DSB repair defective VC8 versus wild-type V79 cells (Alamar blue). It is filed as cell-based. The following applies: 72 h, Alamar blue, in words. The method, then:
(§1) V79 hamster lung cells, which are recommended in the OECD toxicology guidelines for hazard identification (i.e., cytotoxicity and genotoxicity) of chemicals, were purchased from the German Collection of Microorganisms and Cell Cultures (DSMZ, Braunschweig, Germany). They were cultured in Dulbecco´s modified Eagle medium and Ham´s F12 medium (DMEM/F12) (PromoCell, Heidelberg, Germany) containing 10% fetal calf serum at 37 °C in a humidified atmosphere containing 5% CO2. VC8 hamster cells were defective in DNA double-strand break (DSB) repair by homologous recombination (HR) due to the lack of functional BRCA2 protein [69, 70]. VC8 cells were provided by B. Kaina (Institute of Toxicology, Mainz, Germany). Nucleotide excision repair defective XPA and CSB deficient cells were also provided by B. Kaina and were described before. They were grown in DMEM containing 10% fetal calf serum. Human neuroblastoma cells (IMR-32 and SH-SY5Y) were purchased from the German Collection of Microorganisms and Cell Cultures (DSMZ, Braunschweig, Germany) and were used as a model of malignant cells. They were grown in DMEM or RPMI (Roswell park memorial institute) medium, respectively, containing 10% fetal calf serum. If not stated otherwise, HDACi were added to the exponentially growing cells and analyses were performed 6 h to 72 h later.
(§2) Cell viability was determined using the Alamar blue assay, which reflected the mitochondrial activity. Viable cells were characterized by an effective mitochondrial metabolization of the non-fluorescent dye resazurin (Sigma, Steinheim, Germany) to fluorescent resorufin (excitation: 535 nm, emission: 590 nm). Relative viability in the untreated control was set to 100%. In addition, the Neutral red assay, which measures the integrity of lysosomal membranes, was used to monitor cytotoxicity. To this end, cells were incubated with the Neutral red solution (0.01%) in an atmosphere containing 5% CO2 for 90 min before they were fixed (1% formaldehyde/1% CaCl2). Afterwards, the Neutral red that was taken up by the cells was extracted (50% ethanol/1% of acetic acid, 15 min at room temperature (RT)) and absorbance (540 nm) was measured. If not stated otherwise, data are shown as the mean ± standard deviation (SD) of two to three independent experiments each performed in quadruplicate. Approximate IC50 (~IC50, see Supplementary Table S1) were calculated from the corresponding dose-response curves.
On the technique in general: Resazurin is reduced to fluorescent resorufin, in cell work by metabolically active cells.

Data set [2] has as its system V79 hamster lung cells. The data set is described as follows: Alamar blue assay (cell viability), V79 cells. It counts as cell-based. The conditions noted are these: Alamar blue assay, approximate IC50. How it is done:
as §1, §2

The test system of data set [3] is IMR-32 neuroblastoma cells. Nature of the data set: Alamar blue assay (cell viability), IMR-32 cells. It counts as cell-based, human. How it is done: as §1, §2
The test system of data set [4] is SH-SY5Y neuroblastoma cells. Nature of the data set: Neutral red assay (cytotoxicity), SH-SY5Y cells. It is filed as cell-based, human. The method, then: as §1, §2
In data set [5] the test system is SH-SY5Y neuroblastoma cells. Nature of the data set: Alamar blue assay (cell viability), SH-SY5Y cells. It is filed as cell-based, human. How it is done:
as §1, §2

In data set [6] the test system is V79 hamster lung cells. Nature of the data set: Neutral red assay (cytotoxicity), V79 cells. It counts as cell-based. How it is done: as §1, §2
The subject of data set [7] is IMR-32 neuroblastoma cells. The data set is described as follows: Neutral red assay (cytotoxicity), IMR-32 cells. It counts as cell-based, human. The method, then:
as §1, §2

A further data set has as its system XPA-deficient cells. Nature of the data set: Viability of XPA-deficient versus proficient fibroblasts (Alamar blue). The conditions noted are these: 72 h, in words. It is filed as cell-based, human. How it is done:
Figure 7 Sensitivity of nucleotide excision repair (NER) defective cells to hydroxamic acid- and benzamide-type HDACi. Viability of wild-type human fibroblasts and fibroblasts defective in nucleotide excision repair (NER) pathways (i.e., global genome nucleotide excision repair (GG-NER) or transcription-coupled nucleotide excision repair (TC-NER)) due to a defect in Xeroderma pigmentosum group A protein (XPA) or Cockayne syndrome protein B (CSB), respectively, was analyzed 72 h after the addition of HDACi by the Alamar blue assay, as described in Methods. The DNA intrastrand cross-linking agent cisplatin was used for control. Data shown are the mean ± SD from three independent experiments (n = 3) each performed in triplicate (N = 3); ns, not significant; *, p ≤ 0.05; **, p ≤ 0.01 as compared to the corresponding untreated controls (Student´s t-test).
V79 hamster lung cells, which are recommended in the OECD toxicology guidelines for hazard identification (i.e., cytotoxicity and genotoxicity) of chemicals, were purchased from the German Collection of Microorganisms and Cell Cultures (DSMZ, Braunschweig, Germany). They were cultured in Dulbecco´s modified Eagle medium and Ham´s F12 medium (DMEM/F12) (PromoCell, Heidelberg, Germany) containing 10% fetal calf serum at 37 °C in a humidified atmosphere containing 5% CO2. VC8 hamster cells were defective in DNA double-strand break (DSB) repair by homologous recombination (HR) due to the lack of functional BRCA2 protein [69, 70]. VC8 cells were provided by B. Kaina (Institute of Toxicology, Mainz, Germany). Nucleotide excision repair defective XPA and CSB deficient cells were also provided by B. Kaina and were described before. […]
Cell viability was determined using the Alamar blue assay, which reflected the mitochondrial activity. […] Afterwards, the Neutral red that was taken up by the cells was extracted (50% ethanol/1% of acetic acid, 15 min at room temperature (RT)) and absorbance (540 nm) was measured. […] Approximate IC50 (~IC50, see Supplementary Table S1) were calculated from the corresponding dose-response curves.

Data set [8] concerns V79 cells.
Method: The formation of DNA strand breaks and apurinic/apyrimidinic sites was monitored employing the alkaline comet assay [87], which is part of the OECD guideline of in vivo genotoxicity testings and detects DNA strand breaks (DNA single- and double-strand breaks) and alkali-labile sites [87]. Briefly, after aspiration of the medium and trypsinization, cells were mixed with 0.5% melting agarose and transferred onto agarose-coated (1.5%) slides. After lysis in alkaline buffer (pH 10) (1 h, 4 °C, light protection) and unwinding of the DNA in precooled lysis buffer (pH >13) (20 min, 4 °C, light protection), electrophoresis was performed (electric current: 300 mA constant; 1 V/cm). After neutralization in salt buffer (pH 7.5) and staining with propidium iodide solution (50 µg/mL), comets were evaluated by fluorescence microscopy. Quantification of migrated DNA was performed with TriTek Comet Score™ software Version 1.5, evaluating ≥50 cells per condition (blinded assessment). […] Fold increase in tail intensities of treated cells were calculated by relating the % DNA in tail of treated cells to that of the corresponding untreated controls, which were set to 1.0 (see Figure 2B).
The test system of data set [9] is V79 cells. The source holds these as a separate data set.
Method: We analyzed the frequency of micronuclei in binucleated cells, as described [86]. Briefly, logarithmically growing cells were treated with cytochalasin B (3 µg/m) for 24 h. After fixation with formaldehyde (3.7% in PBS, 20 min, RT) and washing with PBS, cells were permeabilized using precooled methanol (20 min, −20 °C.) After washing with PBS and rinsing the cell layer with PBS containing Triton X100 (PBST; 0.3% Triton X100 in PBS), DNA was stained by DAPI (4´,6-diamino-2-phenylindole) and the number of micronuclei was evaluated by fluorescence microscopy. Data shown are the mean ± SEM of three independent experiments with ≥1000 binucleated cells evaluated per experimental condition.
Setting [10] is: 24 h, approximate IC50, read-out: IC50 - 24 h Treatment, IMR-32.
The mark [11] stands for this setting: 72 h, approximate IC50, read-out: IC50 - 72 h Treatment, IMR-32.
[12] abbreviates: 24 h, approximate IC50, read-out: IC50 - 24 h Treatment, SH-SY5Y.
[13] abbreviates: 72 h, approximate IC50, read-out: IC50 - 72 h Treatment, SH-SY5Y.

In the case of `Nc1ccccc1NC(=O)c1ccc(CNc2nccc(-c3cccnc3)n2)cc1` [mocetinostat], in data set [1], the “sensitivity of VC8 cells versus V79 cells” value is “hypersensitive”.
`CCCCON(Cc1ccc(C(=O)NO)cc1)C(=O)Nc1cc(C)cc(C)c1` [MPK264]: the IC50 in the data set with V79 hamster lung cells [2] (24 h, read-out: IC50 - 24 h Treatment, V79) is 22 µM; in the data set with V79 hamster lung cells [2] (72 h, read-out: IC50 - 72 h Treatment, V79) it was 19 µM; in data set [3] (setting [10]), 12 µM; in [3] (setting [11]), 2 µM; in data set [4] (setting [12]) it was 24 µM; in data set [4] (setting [13]), 3 µM. Also, the IC50 is 10 µM in data set [5] (setting [12]); 3 µM in data set [5] (setting [13]); 20 µM with V79 hamster lung cells [6] (24 h, approximate IC50, read-out: IC50 - 24 h Treatment, V79); 17 µM with V79 hamster lung cells [6] (72 h, approximate IC50, read-out: IC50 - 72 h Treatment, V79); 16 µM in data set [7] (setting [10]); 2 µM in data set [7] (setting [11]).
Turning to `N.N.[Cl][Pt][Cl]` [cisplatin], the “sensitivity of XPA-deficient versus XPA proficient cells” value with XPA-deficient cells is “XPA deficient cells are hypersensitive”.
As for `COS(C)(=O)=O` [MMS, methyl methanesulfonate], the “DNA strand breaks (comet assay)” value with V79 cells [8] is “substantially increased the level of DNA strand breaks”. For the same compound, the “Mean (% DNA in tail)” value in the data set on V79 cells [8] (hamster, 0.25 mM) came out at 50.9 % DNA in tail. The frequency of micronuclei entry in the data set with V79 cells [9] is “substantial clastogenicity”.
With `C/C=C1\NC(=O)[C@H]2CSSCC/C=C/[C@H](CC(=O)N[C@H](C(C)C)C(=O)N2)OC(=O)[C@H](C(C)C)NC1=O` [romidepsin], the “sensitivity of VC8 cells versus V79 cells” value in data set [1] was “hypersensitive”.
